Results as given in PubChem BioAssay (NCI).
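Protocol summary: plate cells (96-well), add compound at 5 concentrations, incubate 48 h, interpolate endpoints linearly. GI50 is the concentration that inhibits growth by half. TGI denotes the concentration required for complete inhibition of growth.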

Key:
Assay in all cases: NCI-60 cell line screen, 48 h
786-0 renal = test system: 786-0 renal
A498 renal = test system: A498 renal
A549 NSCLC = test system: A549 NSCLC
ACHN renal = test system: ACHN renal
BT-549 breast = test system: BT-549 breast
CAKI-1 renal = test system: CAKI-1 renal
CCRF-CEM leukemia = test system: CCRF-CEM leukemia
COLO 205 colon = test system: COLO 205 colon
DU-145 prostate = test system: DU-145 prostate
EKVX NSCLC = test system: EKVX NSCLC
HCC-2998 colon = test system: HCC-2998 colon
HCT-116 colon = test system: HCT-116 colon
HCT-15 colon = test system: HCT-15 colon
HL-60(TB) leukemia = test system: HL-60(TB) leukemia
HOP-62 NSCLC = test system: HOP-62 NSCLC
HS 578T breast = test system: HS 578T breast
HT29 colon = test system: HT29 colon
IGROV1 ovarian = test system: IGROV1 ovarian
K-562 leukemia = test system: K-562 leukemia
KM12 colon = test system: KM12 colon
LOX IMVI melanoma = test system: LOX IMVI melanoma
M14 melanoma = test system: M14 melanoma
MALME-3M melanoma = test system: MALME-3M melanoma
MCF7 breast = test system: MCF7 breast
MDA-MB-231 breast = test system: MDA-MB-231 breast
MDA-MB-435 = test system: MDA-MB-435
MOLT-4 leukemia = test system: MOLT-4 leukemia
NCI-H226 lung = test system: NCI-H226 lung
NCI-H23 lung = test system: NCI-H23 lung
NCI-H460 lung = test system: NCI-H460 lung
NCI-H522 lung = test system: NCI-H522 lung
NCI/ADR-RES ovarian = test system: NCI/ADR-RES ovarian
OVCAR-3 ovarian = test system: OVCAR-3 ovarian
OVCAR-4 ovarian = test system: OVCAR-4 ovarian
OVCAR-5 ovarian = test system: OVCAR-5 ovarian
OVCAR-8 ovarian = test system: OVCAR-8 ovarian
PC-3 prostate = test system: PC-3 prostate
RPMI-8226 leukemia = test system: RPMI-8226 leukemia
SF-268 CNS = test system: SF-268 CNS
SF-295 CNS = test system: SF-295 CNS
SF-539 CNS = test system: SF-539 CNS
SK-MEL-2 melanoma = test system: SK-MEL-2 melanoma
SK-MEL-28 melanoma = test system: SK-MEL-28 melanoma
SK-MEL-5 melanoma = test system: SK-MEL-5 melanoma
SK-OV-3 ovarian = test system: SK-OV-3 ovarian
SN12C renal = test system: SN12C renal
SNB-19 CNS = test system: SNB-19 CNS
SNB-75 CNS = test system: SNB-75 CNS
SR leukemia = test system: SR leukemia
SW-620 colon = test system: SW-620 colon
T-47D breast = test system: T-47D breast
TK-10 renal = test system: TK-10 renal
U251 CNS = test system: U251 CNS
UACC-257 melanoma = test system: UACC-257 melanoma
UACC-62 melanoma = test system: UACC-62 melanoma
UO-31 renal = test system: UO-31 renal
HOP-92 NSCLC = test system: HOP-92 NSCLC

## COc1cc(NC(=O)c2ccc(C(F)(F)F)nc2Nc2ccc(Cl)cc2C)cc(OC)c1OC
786-0 renal
  GI50: 5.56 µM
  TGI: 22.4 µM
A498 renal
  GI50: 3.9 µM
  TGI: 23.8 µM
A549 NSCLC
  GI50: 5.82 µM
  TGI: > 100 µM
ACHN renal
  GI50: 3.74 µM
  TGI: 35.5 µM
BT-549 breast
  GI50: 10.7 µM
  TGI: 26.6 µM
CAKI-1 renal
  GI50: 3.36 µM
  TGI: 9.85 µM
CCRF-CEM leukemia
  GI50: 1.58 µM
  TGI: 29.5 µM
COLO 205 colon
  GI50: 4.06 µM
  TGI: 15.5 µM
DU-145 prostate
  GI50: 11.7 µM
  TGI: 57.3 µM
EKVX NSCLC
  GI50: 6.34 µM
  TGI: > 100 µM
HCC-2998 colon
  GI50: 1.89 µM
  TGI: 5.61 µM
HCT-116 colon
  GI50: 3.14 µM
  TGI: 13.4 µM
HCT-15 colon
  GI50: 4.35 µM
  TGI: 21.2 µM
HL-60(TB) leukemia
  GI50: 1.76 µM
  TGI: 15.2 µM
HOP-62 NSCLC
  GI50: 5.95 µM
  TGI: 18.2 µM
HS 578T breast
  GI50: 4.65 µM
  TGI: 38.7 µM
HT29 colon
  GI50: 4.92 µM
  TGI: 19.3 µM
IGROV1 ovarian
  GI50: 0.958 µM
  TGI: 23 µM
K-562 leukemia
  GI50: 3.01 µM
  TGI: > 100 µM
KM12 colon
  GI50: 1.55 µM
  TGI: 13.2 µM
LOX IMVI melanoma
  GI50: 3.23 µM
  TGI: 13.5 µM
M14 melanoma
  GI50: 4.14 µM
  TGI: 18.9 µM
MALME-3M melanoma
  GI50: 4.94 µM
  TGI: 24 µM
MCF7 breast
  GI50: 2.39 µM
  TGI: 16.2 µM
MDA-MB-231 breast
  GI50: 3.73 µM
  TGI: 14.8 µM
MDA-MB-435
  GI50: 4.19 µM
  TGI: 21.3 µM
MOLT-4 leukemia
  GI50: 2.54 µM
  TGI: 18.2 µM
NCI-H226 lung
  GI50: 10.8 µM
  TGI: 31.7 µM
NCI-H23 lung
  GI50: 2.2 µM
  TGI: 10.6 µM
NCI-H460 lung
  GI50: 3.3 µM
  TGI: 12.9 µM
NCI-H522 lung
  GI50: 1.61 µM
  TGI: 14.4 µM
NCI/ADR-RES ovarian
  GI50: 3.62 µM
  TGI: 17.1 µM
OVCAR-3 ovarian
  GI50: 2.41 µM
  TGI: 13.3 µM
OVCAR-4 ovarian
  GI50: 2.77 µM
  TGI: 25.3 µM
OVCAR-5 ovarian
  GI50: 10.8 µM
  TGI: 27.7 µM
OVCAR-8 ovarian
  GI50: 6.19 µM
  TGI: > 100 µM
PC-3 prostate
  GI50: 1.86 µM
  TGI: 10.5 µM
RPMI-8226 leukemia
  GI50: 2.96 µM
  TGI: 17.5 µM
SF-268 CNS
  GI50: 6.67 µM
  TGI: 28.9 µM
SF-295 CNS
  GI50: 5.36 µM
  TGI: 23.1 µM
SF-539 CNS
  GI50: 10.6 µM
  TGI: > 100 µM
SK-MEL-2 melanoma
  GI50: 10.3 µM
  TGI: 28.3 µM
SK-MEL-28 melanoma
  GI50: 4.4 µM
  TGI: 26.4 µM
SK-MEL-5 melanoma
  GI50: 2.95 µM
  TGI: 14.9 µM
SK-OV-3 ovarian
  GI50: 5.15 µM
  TGI: 36.1 µM
SN12C renal
  GI50: 6.75 µM
  TGI: 31 µM
SNB-19 CNS
  GI50: 5.77 µM
  TGI: 48.9 µM
SNB-75 CNS
  GI50: 2.78 µM
  TGI: 18.5 µM
SR leukemia
  GI50: 2.77 µM
  TGI: 13.5 µM
SW-620 colon
  GI50: 5.92 µM
  TGI: 18.8 µM
T-47D breast
  GI50: 2.47 µM
  TGI: 21.3 µM
TK-10 renal
  GI50: 5.83 µM
  TGI: 29.1 µM
U251 CNS
  GI50: 4.86 µM
  TGI: 17.5 µM
UACC-257 melanoma
  GI50: 3.4 µM
  TGI: 19.3 µM
UACC-62 melanoma
  GI50: 3.05 µM
  TGI: 15.9 µM
UO-31 renal
  GI50: 2.68 µM
  TGI: 17.9 µM

## O=c1n(-c2ccccc2)c(=O)n2n1C1C=CC2CCCCCC1
786-0 renal
  TGI: > 100 µM
A549 NSCLC
  TGI: > 100 µM
ACHN renal
  TGI: > 100 µM
BT-549 breast
  TGI: > 100 µM
CAKI-1 renal
  TGI: > 100 µM
CCRF-CEM leukemia
  TGI: > 100 µM
COLO 205 colon
  TGI: > 100 µM
DU-145 prostate
  TGI: > 100 µM
EKVX NSCLC
  TGI: > 100 µM
HCC-2998 colon
  TGI: > 100 µM
HCT-116 colon
  TGI: > 100 µM
HCT-15 colon
  TGI: > 100 µM
HL-60(TB) leukemia
  TGI: > 100 µM
HOP-62 NSCLC
  TGI: > 100 µM
HOP-92 NSCLC
  TGI: > 100 µM
HS 578T breast
  TGI: > 100 µM
HT29 colon
  TGI: > 100 µM
IGROV1 ovarian
  TGI: > 100 µM
KM12 colon
  TGI: > 100 µM
LOX IMVI melanoma
  TGI: > 100 µM
M14 melanoma
  TGI: > 100 µM
MALME-3M melanoma
  TGI: > 100 µM
MCF7 breast
  TGI: > 100 µM
MDA-MB-231 breast
  TGI: > 100 µM
MDA-MB-435
  TGI: > 100 µM
MOLT-4 leukemia
  TGI: > 100 µM
NCI-H226 lung
  TGI: > 100 µM
NCI-H23 lung
  TGI: > 100 µM
NCI-H460 lung
  TGI: > 100 µM
NCI-H522 lung
  TGI: > 100 µM
NCI/ADR-RES ovarian
  TGI: > 100 µM
OVCAR-3 ovarian
  TGI: > 100 µM
OVCAR-4 ovarian
  TGI: > 100 µM
OVCAR-5 ovarian
  TGI: > 100 µM
OVCAR-8 ovarian
  TGI: > 100 µM
PC-3 prostate
  TGI: > 100 µM
RPMI-8226 leukemia
  TGI: > 100 µM
SF-268 CNS
  TGI: > 100 µM
SF-295 CNS
  TGI: > 100 µM
SF-539 CNS
  TGI: > 100 µM
SK-MEL-2 melanoma
  TGI: > 100 µM
SK-MEL-28 melanoma
  TGI: > 100 µM
SK-MEL-5 melanoma
  TGI: > 100 µM
SK-OV-3 ovarian
  TGI: > 100 µM
SN12C renal
  TGI: > 100 µM
SNB-19 CNS
  TGI: > 100 µM
SNB-75 CNS
  TGI: > 100 µM
SR leukemia
  TGI: > 100 µM
SW-620 colon
  TGI: > 100 µM
T-47D breast
  TGI: > 100 µM
TK-10 renal
  TGI: > 100 µM
U251 CNS
  TGI: > 100 µM
UACC-257 melanoma
  TGI: > 100 µM
UACC-62 melanoma
  TGI: > 100 µM
UO-31 renal
  TGI: > 100 µM
